Measurements: the supplement of paper PMC11061612

Legend:
DSH1 (Bladder Carcinoma) [1] = assay: combination Emax (second highest fraction inhibited in the dose matrix, 72 h); higher = more inhibition; extreme values may be limits of the assay
Summary of the method: (§1)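 After 24 hours at 37°C and 5% CO2 in 1536-well plates, cells in DMEM/F12 or RPMI plus 10% FBS received two-drug dose matrices for 72 hours. Viability came from CellTiter-Glo 2.0 luminescence and was scaled as inhibition, anchored at 0 by vehicle wells and at 1 by blank wells. Combination Emax is taken as the second-highest inhibition in the matrix, and Bliss excess as the observed combination effect less EA + EB − EA·EB, with EA and EB the single-agent effects.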

[2] = test system: DOV13 (Ovarian Carcinoma); assay: as above
Summary of the method: as §1

SK-N-FI (Neuroblastoma) [3] = assay: as above
Summary of the method: as §1

[4] = test system: KARPAS-1106P (B-Cell Non-Hodgkin's Lymphoma); assay: as above
Summary of the method: as §1

[5] = test system: U-266 (Plasma Cell Myeloma); assay: as above
Summary of the method: as §1

[6] = test system: LS-513 (Colorectal Carcinoma); assay: as above
Summary of the method: as §1

[7] = test system: KATOIII (Gastric Carcinoma); assay: as above
Summary of the method: as §1

DSH1 (Bladder Carcinoma) [8] = assay: Bliss excess, mean over the matrix (fraction); higher = more synergy
Summary of the method: as §1

[9] = test system: SW1990 (Pancreatic Carcinoma); assay: as above
Summary of the method: as §1

ES7 (Ewing's Sarcoma) = assay: as above
Summary of the method: as §1

[10] = test system: NALM-6 (B-Lymphoblastic Leukemia); assay: as above
Summary of the method: as §1

SK-N-FI (Neuroblastoma) [11] = assay: as above
Summary of the method: as §1

[12] = test system: DB (B-Cell Non-Hodgkin's Lymphoma); assay: as above
Summary of the method: as §1

[13] = test system: NCI-H1299 (Non-Small Cell Lung Carcinoma); assay: as above
Summary of the method: as §1

[14] = test system: KARPAS-620 (Plasma Cell Myeloma); assay: as above
Summary of the method: as §1

[15] = test system: TE-5 (Esophageal Squamous Cell Carcinoma); assay: as above
Summary of the method: as §1

[16] = test system: OCI-AML2 (Acute Myeloid Leukemia); assay: as above
Summary of the method: as §1

[17] = test system: MDA-MB-231 (Breast Carcinoma); assay: as above
Summary of the method: as §1

[18] = test system: G-292-Clone-A141B1 (Osteosarcoma); assay: as above
Summary of the method: as §1

[19] = test system: KATOIII (Gastric Carcinoma); assay: as above
Summary of the method: as §1
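For Bliss excess, mean over the matrix in this document: after 72 h of two-drug dosing.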

| SMILES | combination Emax (DSH1 (Bladder Carcinoma) [1]) | combination Emax [2] | combination Emax (SK-N-FI (Neuroblastoma) [3]) | combination Emax [4] | combination Emax [5] | combination Emax [6] | combination Emax [7] | Bliss excess (DSH1 (Bladder Carcinoma) [8]) | Bliss excess [9] | Bliss excess (ES7 (Ewing's Sarcoma)) | Bliss excess [10] | Bliss excess (SK-N-FI (Neuroblastoma) [11]) | Bliss excess [12] | Bliss excess [13] | Bliss excess [14] | Bliss excess [15] | Bliss excess [16] | Bliss excess [17] | Bliss excess [18] | Bliss excess [19] |
| --- | --- | --- | --- | --- | --- | --- | --- | --- | --- | --- | --- | --- | --- | --- | --- | --- | --- | --- | --- | --- |
| C[C@@H](Nc1cc(F)cc(F)c1)c1cc(C(=O)N(C)C)cc2c(=O)cc(N3CCOCC3)oc12 [AZD8186] + CC(=O)c1c(C)c2cnc(Nc3ccc(N4CCNCC4)cn3)nc2n(C2CCCC2)c1=O [Palbociclib] (first compound max 10 µM, 7x7, partner max 10 µM) | 0.471 | 0.484 | 0.43 | 0.791 | 0.155 | 0.584 | 0.356 | 0.104 | -0.0062 | 0.115 | 0.0084 | 0.0089 | 0.0797 | 0.0316 | 0.15 | 0.0301 | 0.132 | 0.0305 | -0.0001 | 0.0615 |
| O=C(c1cc(Cc2n[nH]c(=O)c3ccccc23)ccc1F)N1CCN(C(=O)C2CC2)CC1 [Olaparib] + Cc1c2c(nn1C)CSCc1cc(n(C)n1)CSc1cc(c3ccccc3c1)OCCCc1c(C(=O)O)n(C)c3c-2c(Cl)ccc13 [AZD5991] (first compound max 10 µM, 7x7, partner max 1 µM) | 0.692 | 0.216 | 0.211 | 0.919 | 0.846 | 0.204 | 0.356 | -0.0097 | -0.0296 | 0.022 | -0.039 | -0.0321 | 0.0141 | -0.0455 | 0.0121 | -0.0427 | 0.0775 | -0.0354 | -0.0462 | -0.0852 |
| C=CCn1c(=O)c2cnc(Nc3ccc(N4CCN(C)CC4)cc3)nc2n1-c1cccc(C(C)(C)O)n1 [AZD1775] + Nc1ccn([C@@H]2O[C@H](CO)[C@@H](O)C2(F)F)c(=O)n1 [Gemcitabine] (first compound max 1 µM, partner max 0.3 µM) | 0.923 | 0.952 | 0.616 | 0.94 | 0.765 | 0.839 | 0.506 | -0.0833 | -0.0395 | 0.0319 | -0.0093 | -0.0167 |  | 0.0513 | 0.026 | -0.0678 | 0.0415 | 0.0686 | -0.0405 | -0.0196 |
| C[C@@H]1COCCN1c1cc(C2([S@](C)(=N)=O)CC2)nc(-c2ccnc3[nH]ccc23)n1 [AZD6738] + Nc1ccn([C@@H]2O[C@H](CO)[C@@H](O)C2(F)F)c(=O)n1 [Gemcitabine] (first compound max 10 µM, 7x7, partner max 0.3 µM) | 1 | 0.965 | 0.789 | 0.926 | 0.747 | 0.824 | 0.656 | 0.0108 | -0.0028 | 0.0367 | -0.0252 | 0.0769 | -0.0172 | 0.0963 | 0.135 | -0.0102 | 0.0351 | 0.0736 | 0.0421 | 0.0057 |
| Cc1cc2ncnn2cc1Nc1ncc2c(n1)n(C1CCOCC1)c(=O)n2C [AZD7648] + COc1cc([C@@H]2c3cc4c(cc3[C@@H](O[C@@H]3O[C@@H]5CO[C@@H](C)O[C@H]5[C@H](O)[C@H]3O)[C@H]3COC(=O)[C@H]23)OCO4)cc(OC)c1O [Etoposide] (first compound max 10 µM, 7x7, partner max 10 µM) | 0.844 | 0.923 | 0.368 | 0.781 | 0.581 | 0.662 | 0.368 | 0.0627 | 0.0302 | 0.052 | 0.0869 | -0.0258 | 0.0998 | 0.113 | 0.0051 | -0.0089 | 0.175 | 0.0776 | 0.0701 | -0.0224 |
| CS(=O)(=O)CCNCc1ccc(-c2ccc3ncnc(Nc4ccc(OCc5cccc(F)c5)c(Cl)c4)c3c2)o1 [Lapatinib] + Cn1cnc2c(F)c(Nc3ccc(Br)cc3Cl)c(C(=O)NOCCO)cc21 [Selumetinib] (first compound max 10 µM, 7x7, partner max 10 µM) | 0.802 | 0.357 | 0.582 | 0.617 | 0.621 | 0.949 | 0.523 | -0.067 | 0.0373 | -0.0355 | 0.021 | 0.0179 | 0.0388 | 0.0085 | 0.0746 | -0.0241 | -0.0296 | -0.0236 | -0.0566 | -0.0223 |
| Cc1nc(-c2cn3c(n2)-c2ccc(-c4cnn(C(C)(C)C(N)=O)c4)cc2OCC3)n(C(C)C)n1 [Taselisib] + O=C(Nc1ccc2[nH]nc(-c3ccncc3)c2c1)[C@@H]1CCN(CC(=O)N2CCN(c3ccc(-c4ncccn4)cc3)CC2)C1 [SCH772984] (first compound max 10 µM, 7x7, partner max 5 µM) | 0.977 | 0.599 | 0.877 | 0.78 | 0.787 | 0.975 | 0.583 | 0.0051 | 0.0724 | 0.036 | 0.017 | 0.0465 | 0.0783 | 0.0654 | 0.116 | 0.113 | 0.132 | 0.0595 | -0.0258 | -0.0189 |
| C[C@@H](Oc1cc(-c2cnn(C3CCNCC3)c2)cnc1N)c1c(Cl)ccc(F)c1Cl [Crizotinib] + Cn1cnc2c(F)c(Nc3ccc(Br)cc3Cl)c(C(=O)NOCCO)cc21 [Selumetinib] (first compound max 10 µM, 7x7, partner max 10 µM) | 0.229 | 0.647 | 0.809 | 0.953 | 0.624 | 1 | 0.588 | -0.117 | -0.0626 | -0.0134 | -0.0149 | 0.0321 | -0.0472 | 0.0598 | 0.0729 | -0.0366 | -0.0036 | 0.0323 | -0.0223 | -0.0081 |
| O=C(c1cc(Cc2n[nH]c(=O)c3ccccc23)ccc1F)N1CCN(C(=O)C2CC2)CC1 [Olaparib] + CN(CC[C@H](CSC1=CC=CC=C1)NC2=C(C=C(C=C2)S(=O)(=O)NC(=O)C3=CC=C(C=C3)N4CCC(CC4)[C@H](C5=CC=CC=C5C6=CC=C(C=C6)Cl)O)S(=O)(=O)C(F)(F)F)CCO [AZD4320] (first compound max 10 µM, 7x7, partner max 1 µM) | 0.512 | 0.86 | 0.144 | 0.498 | 0.631 | 0.452 | 0.37 | 0.0308 | -0.0818 | 0.0156 | 0.0211 | -0.0374 | -0.0863 | -0.0463 | 0.0017 | -0.0436 | 0.041 | -0.071 | -0.0275 | -0.0047 |
| Cc1c2c(nn1C)CSCc1cc(n(C)n1)CSc1cc(c3ccccc3c1)OCCCc1c(C(=O)O)n(C)c3c-2c(Cl)ccc13 [AZD5991] + CC(=O)O[C@H]1C(=O)[C@@]2(C)[C@H]([C@H](OC(=O)c3ccccc3)[C@]3(O)C[C@H](OC(=O)[C@H](O)[C@@H](NC(=O)c4ccccc4)c4ccccc4)C(C)=C1C3(C)C)[C@]1(OC(C)=O)CO[C@@H]1C[C@@H]2O [Paclitaxel] (first compound max 1 µM, 7x7, partner max 3 µM) | 0.963 | 0.796 | 0.621 | 0.951 | 0.993 | 0.893 | 0.283 | 0.0523 | -0.0231 | -0.06 | -0.0432 | -0.0177 | 0.0342 | -0.0453 | -0.0174 | -0.0112 | -0.0046 | 0.0049 | 0.0565 | -0.0298 |
| N#Cc1cnc(Nc2cc(NC[C@H]3CNCCO3)c(C(F)(F)F)cn2)cn1 [SRA737] + Nc1ccn([C@@H]2O[C@H](CO)[C@@H](O)C2(F)F)c(=O)n1 [Gemcitabine] (first compound max 10 µM, 7x7, partner max 0.3 µM) | 0.972 | 0.97 | 0.752 | 0.951 | 0.78 | 0.801 | 0.557 | 0.0195 | -0.0384 | 0.0172 | -0.0673 | 0.0476 | 0.0174 | 0.0831 | 0.151 | -0.0151 |  | 0.105 | 0.0405 | -0.0794 |
| Cc1c2c(nn1C)CSCc1cc(n(C)n1)CSc1cc(c3ccccc3c1)OCCCc1c(C(=O)O)n(C)c3c-2c(Cl)ccc13 [AZD5991] + CS(=O)(=O)CCNCc1ccc(-c2ccc3ncnc(Nc4ccc(OCc5cccc(F)c5)c(Cl)c4)c3c2)o1 [Lapatinib] (first compound max 1 µM, 7x7, partner max 10 µM) | 0.991 | 0.185 | 0.562 | 0.893 | 0.845 | 0.822 | 0.415 | 0.0013 | 0.0149 | 0.0148 | -0.101 | -0.0808 | 0.0597 | -0.0243 | 0.0054 | 0.0198 | 0.0415 | -0.0852 | -0.0185 | -0.0787 |
| C[C@@H](Oc1cc(-c2cnn(C3CCNCC3)c2)cnc1N)c1c(Cl)ccc(F)c1Cl [Crizotinib] + CC1=C(C(=CC=C1)Cl)NC(=O)C2=CN=C(S2)NC3=CC(=NC(=N3)C)N4CCN(CC4)CCO [Dasatinib] (first compound max 10 µM, 7x7, partner max 2 µM) | 0.437 | 1 | 0.422 | 0.954 | 0.499 | 0.978 | 0.731 | -0.0536 | -0.0312 | 0.0273 | 0.022 | -0.0425 | -0.0805 | 0.123 | 0.0032 | 0.0287 | -0.0271 | 0.0116 | 0.028 | -0.0263 |
| N#Cc1cnc(Nc2cc(NC[C@H]3CNCCO3)c(C(F)(F)F)cn2)cn1 [SRA737] + C=CCn1c(=O)c2cnc(Nc3ccc(N4CCN(C)CC4)cc3)nc2n1-c1cccc(C(C)(C)O)n1 [AZD1775] (first compound max 10 µM, partner max 1 µM) | 0.682 |  | 0.722 | 0.913 | 0.599 | 0.84 | 0.392 | -0.0441 | -0.0149 | 0.102 | 0.11 | 0.0703 | 0.0626 | 0.0448 | 0.133 | 0.0481 | 0.071 | 0.0607 | -0.009 | -0.0327 |
